Data on one compound can be found in patent publication US12336971B2, “Ophthalmic pharmaceutical compositions and uses thereof” (ALCON INC., priority 2021, dated 2025).

Data set [1] in a line: Equilibrium solubility of WS-12 in compositions / evaluation of solubilizers (HPLC). In kind it is physicochemical. The protocol: As explained above, WS-12 is insoluble in water. Regardless, it was necessary to identify excipients that would provide WS-12 with a solubility of about 200 μM (0.0058%) in an aqueous medium compatible with administration (e.g., topical administration) to a human (e.g., a human eye). Several solubilizers were evaluated, including PEG 400 (polyethylene glycol 400), KOLLIDON 30 (polyvinylpyrrolidone), propylene glycol, TWEEN 80 (polyoxyethylene (20) sorbitan monooleate), KOLLIPHOR® EL or KOLLIPHOR® ELP (polyoxyl 35 castor oil) and tyloxapol (ethylene oxide-formaldehyde-p-octylphenol copolymer).

The nature of data set [2]: Loss of WS-12 concentration on storage in polyolefin containers. In kind it is physicochemical. The protocol: It was discovered that there is an inverse relationship between the crystallinity of the polyolefin and the amount of WS-12 absorbed into the polyolefin when the pharmaceutical composition is stored in contact with the polyolefin at elevated temperatures (e.g. 40° C.). Crystallinity was measured by determining the melting temperature of the polyolefin by DSC, with higher melting temperatures denoting greater crystallinity.
LDPE 1, LDPE 2, LDPE 3, LDPE 4, and LDPE 5 in Table 12 correspond to LDPEs from different suppliers. Melting point values of the polyolefins were experimentally determined by differential scanning calorimetry (DSC). The densities of the polyolefins were as provided by the manufacturer's product data sheet.

The nature of data set [3]: WS-12 content in blow-fill-seal LDPE containers after curing at 40° C. and storage at 25° C. In kind it is physicochemical. The following applies: Formulation 1 in LDPE BFS units; cured 10 days at 40° C., then stored at 25° C. over 140 days; FIG. 8. The protocol:
The ‘curing’ technique, or process, described herein exploits the temperature dependence of WS-12 absorption into LDPE to yield a product that is stable when stored at 25° C. In some embodiments, the curing technique includes the following steps: (a) producing the BFS containers filled with an ophthalmic pharmaceutical composition provided herein; (b) storing the filled BFS containers at a first temperature (e.g. 40° C.) to drive WS-12 into the LDPE container with the aim of saturating the container walls with WS-12; and (c) subsequently storing the BFS containers at a second temperature (e.g., 25° C.) whereupon further loss of WS-12 to the container walls is stemmed due to the above described saturation process.
(99A long-term 25° C. trace). The first data point of each line represents the content of WS-12 in the BFS article after the curing period (e.g., the first temperature of storage). The amount of WS-12 lost to the LDPE increased as the duration of curing at 40° C. was increased from 1 day to 10 days. […] After a curing period of 10 days at 40° C. (black circles), the content of WS-12 in the BFS units stored at 25° C. was constant over a period of 140 days.

Data set [4] is described as follows: Chemical stability of WS-12 to typical drug stressors. In kind it is physicochemical. As to conditions: typical drug stressors (acid, base, peroxide, heat, light).
The conditions of data set [5]: JECFA, cited from earlier work.

Like-named read-outs stand apart in the source and are kept apart here.

`COc1ccc(NC(=O)[C@@H]2C[C@H](C)CC[C@H]2C(C)C)cc1` [WS-12, (1R,2S,5R)-2-isopropyl-N-(4-methoxyphenyl)-5-methylcyclohexane-1-carboxamide]: in data set [1] (KOLLIPHOR EL 3% w/v), the WS-12 level dissolved is no less than 200 µM. For the same compound, the “Effect on WS-12 solubility” value in data set [1] (TWEEN 80, required concentration greater than 4%) is “significantly increased”. The solubility is less than 200 µM in data set [1] (aqueous medium with solubilizer, aqueous with cosolvent or surfactant or cyclodextrin, thermodynamic from solid, KOLLIDON 30 (polyvinylpyrrolidone), read-out: WS-12 level solubilized); 0.041 mg/mL in data set [1] (aqueous ophthalmic composition, 2 °C, aqueous with cosolvent or surfactant or cyclodextrin, thermodynamic from solid, in 3% KOLLIPHOR EL, 0.14% hypromellose, 0.78% Na dihydrogen phosphate dihydrate, 0.55% NaCl, pH 7, 2°-8° C., read-out: WS-12 Solubility (mg/mL) 2°-8° C.); 0.055 mg/mL in data set [1] (aqueous ophthalmic composition, aqueous with cosolvent or surfactant or cyclodextrin, thermodynamic from solid, in 3% KOLLIPHOR EL, 0.14% hypromellose, 0.78% Na dihydrogen phosphate dihydrate, 0.55% NaCl, pH 7, about 17° C., read-out: WS-12 Solubility (mg/mL) Room Temp (about 17° C.)); less than 200 µM in data set [1] (propylene glycol, read-out: WS-12 level solubilized); less than 200 µM in data set [1] (tyloxapol, read-out: WS-12 level solubilized). Moreover, the “Percent Loss in WS-12 Concentration After Storage in Polyolefin Container for 2 Weeks at 40° C.” value in data set [2] (High Density Polyethylene (HDPE)) is reported as 1.3%; in data set [2] (Low Density Polyethylene (LDPE 1)), 2.8%; in data set [2] (Low Density Polyethylene (LDPE 2)), 2.8%; in data set [2] (Low Density Polyethylene (LDPE 3)), 3.3%; in data set [2] (Low Density Polyethylene (LDPE 4)), 4.0%; in data set [2] (Low Density Polyethylene (LDPE 5)), 4.5%. Besides, in data set [2] (Polypropylene (PP)), the “Percent Loss in WS-12 Concentration After Storage in Polyolefin Container for 2 Weeks at 40° C.” value turned out to be 1.3%. Moreover, the “Content of WS-12 in the BFS units” value in data set [3] was “constant”. The Chemical stability result in data set [4] was “chemically stable”. For the same compound, in data set [5] (avocado oil), the “Solubility in avocado oil” value is “sparingly soluble”. In addition, in data set [5] (ethanol), the Solubility in ethanol result is recorded as “sparingly soluble”. In data set [5] (water), the Solubility in water entry was “insoluble”.
